Where “and” joins values, the source holds several entries; their conditions need not be identical. Equal entries are not always repeated.
What was measured:
[1] = test system: prostatic cell line DU145; experiment: MTT cell proliferation index, DU145; assay type: cell-based, human; details: control = 100%, MTT after 48 hours
Experimental: The effects of the PACE4 inhibitors on cell proliferation were evaluated. MTT assay was used to evaluate the effects of PACE4 inhibitors on cell proliferation. MTT (3-(4,5-Dimethylthiazol-2-yl)-2,5-diphenyltetrazolium bromide) assay is a standard colorimetric assay for measuring cellular proliferation. Yellow MTT is reduced to purple formazan in the mitochondria of living cells. This reduction takes place only when mitochondrial reductase enzymes are active. Conversion is directly related to the number of viable cells. The MTT assay is quantitative and more sensitive than viability using trypan blue and can also be adapted to 96 well formats, whereas trypan blue tests must be read individually. Because the MTT assay requires less cell manipulation than [^3H]thymidine incorporation assays (no cell harvesting or medium changes are necessary), the possibility of error is reduced and the standard deviation values are lower. […] Other assays also known can be used to determine the effects of an inhibitor on the proliferation of a cell.
The index of cellular proliferation of cells treated with the ML and acetyl-ML (CH3CO—NH-[…]-CONH2 (SEQ ID NO: 5), see Table 2) peptides were measured using the colorimetric MTT assay (thiazolyl blue tetrazolium bromide; Sigma-Aldrich). Briefly, cells were seeded in 96-well plate (BD Biosciences) in triplicate with 100 μl of a 3.5×10^4 cells/ml cell suspension in complete growth medium. The following day, cells were carefully washed twice with PBS and media were replaced with 100 μl of either RPMI or conditioned growth media. Conditioned growth medium preparation consists in 1.2×10^5 cells seeded in 6-well plates with complete growth media. The next day, cells are washed twice with PBS and the media are replaced with 1 ml RPMI growth medium. 48 hours later, the conditioned media are collected, filtered through […] syringe filter units and incubated on different cell lines.
48 hours later, 20 μl of a MTT solution (5 mg/ml in PBS 1×) was added to each well for 4.5 h at 37° C./5% CO2. The media was then discarded and the cells were solubilized with 100 μl isopropanol/0.04 N HCl solution. The absorbance was measured at a wavelength of 550 nm with a reference at 650 nm in microplate reader (SpectraMax190™; Molecular Devices).

[2] = test system: gliobastoma cell line U251; experiment: MTT cell proliferation index, U251; assay type: cell-based, human
Experimental: (§1) The effects of the PACE4 inhibitors on cell proliferation were evaluated. MTT assay was used to evaluate the effects of PACE4 inhibitors on cell proliferation. MTT (3-(4,5-Dimethylthiazol-2-yl)-2,5-diphenyltetrazolium bromide) assay is a standard colorimetric assay for measuring cellular proliferation. Yellow MTT is reduced to purple formazan in the mitochondria of living cells. This reduction takes place only when mitochondrial reductase enzymes are active. Conversion is directly related to the number of viable cells. The MTT assay is quantitative and more sensitive than viability using trypan blue and can also be adapted to 96 well formats, whereas trypan blue tests must be read individually. […]
(§2) The index of cellular proliferation of cells treated with the ML and acetyl-ML (CH3CO—NH-[…]-CONH2 (SEQ ID NO: 5), see Table 2) peptides were measured using the colorimetric MTT assay (thiazolyl blue tetrazolium bromide; Sigma-Aldrich). […]
(§3) 48 hours later, 20 μl of a MTT solution (5 mg/ml in PBS 1×) was added to each well for 4.5 h at 37° C./5% CO2. […] The absorbance was measured at a wavelength of 550 nm with a reference at 650 nm in microplate reader (SpectraMax190™; Molecular Devices).

[3] = test system: sarcofibroma cell line HT1080; experiment: MTT cell proliferation index, HT1080; assay type: cell-based, human
Experimental: as §1, §2, §3

PC5/6 = PC5/6 (Homo sapiens, UniProt Q92824); experiment: Enzyme inhibition assay, fluorogenic substrate, PC5/6; assay type: biochemical
Sequence of PC5/6 (Q92824 115-1860): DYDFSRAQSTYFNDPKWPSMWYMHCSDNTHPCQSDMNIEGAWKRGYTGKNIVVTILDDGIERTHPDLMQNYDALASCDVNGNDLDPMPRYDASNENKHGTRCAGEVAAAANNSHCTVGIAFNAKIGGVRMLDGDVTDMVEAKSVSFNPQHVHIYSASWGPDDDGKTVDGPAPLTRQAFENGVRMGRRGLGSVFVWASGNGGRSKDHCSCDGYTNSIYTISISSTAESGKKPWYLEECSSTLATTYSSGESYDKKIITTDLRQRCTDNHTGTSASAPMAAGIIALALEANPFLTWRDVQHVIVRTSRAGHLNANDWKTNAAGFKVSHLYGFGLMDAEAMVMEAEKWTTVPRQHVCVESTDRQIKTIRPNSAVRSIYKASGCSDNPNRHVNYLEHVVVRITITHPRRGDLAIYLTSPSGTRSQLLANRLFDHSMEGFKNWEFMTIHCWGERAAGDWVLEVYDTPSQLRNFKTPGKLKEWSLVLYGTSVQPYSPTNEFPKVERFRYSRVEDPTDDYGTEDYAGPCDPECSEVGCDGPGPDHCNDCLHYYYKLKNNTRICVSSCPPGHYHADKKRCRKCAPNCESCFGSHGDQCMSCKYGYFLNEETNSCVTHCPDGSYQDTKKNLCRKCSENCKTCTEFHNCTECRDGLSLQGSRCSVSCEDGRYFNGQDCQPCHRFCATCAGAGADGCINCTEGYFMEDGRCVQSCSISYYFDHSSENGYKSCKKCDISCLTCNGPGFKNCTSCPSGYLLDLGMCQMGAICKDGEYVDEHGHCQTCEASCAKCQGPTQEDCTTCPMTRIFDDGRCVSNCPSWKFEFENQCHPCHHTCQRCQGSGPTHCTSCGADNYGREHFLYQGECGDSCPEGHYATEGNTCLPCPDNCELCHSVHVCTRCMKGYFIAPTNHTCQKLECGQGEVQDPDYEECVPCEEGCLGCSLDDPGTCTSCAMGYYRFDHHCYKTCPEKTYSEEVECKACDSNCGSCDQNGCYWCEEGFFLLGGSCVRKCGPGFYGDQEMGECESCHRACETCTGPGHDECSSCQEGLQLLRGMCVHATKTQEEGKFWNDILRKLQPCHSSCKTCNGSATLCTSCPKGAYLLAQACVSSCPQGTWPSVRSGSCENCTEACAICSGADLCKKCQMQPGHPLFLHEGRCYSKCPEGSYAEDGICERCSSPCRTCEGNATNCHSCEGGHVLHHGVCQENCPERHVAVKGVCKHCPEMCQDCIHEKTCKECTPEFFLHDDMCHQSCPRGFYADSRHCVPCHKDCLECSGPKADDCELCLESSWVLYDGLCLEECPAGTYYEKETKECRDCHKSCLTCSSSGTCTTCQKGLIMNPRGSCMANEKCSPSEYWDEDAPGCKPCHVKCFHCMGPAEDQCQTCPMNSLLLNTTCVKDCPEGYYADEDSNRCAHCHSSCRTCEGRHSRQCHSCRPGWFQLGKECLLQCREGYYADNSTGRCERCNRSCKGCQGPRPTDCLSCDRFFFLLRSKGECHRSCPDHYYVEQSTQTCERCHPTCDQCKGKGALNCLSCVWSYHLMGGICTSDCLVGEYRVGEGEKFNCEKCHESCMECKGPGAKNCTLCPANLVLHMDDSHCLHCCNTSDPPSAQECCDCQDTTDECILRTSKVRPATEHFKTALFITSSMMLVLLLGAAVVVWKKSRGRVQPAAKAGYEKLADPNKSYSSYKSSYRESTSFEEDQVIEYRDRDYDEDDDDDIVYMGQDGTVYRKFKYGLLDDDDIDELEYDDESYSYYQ
Experimental: (§4) Enzyme inhibition assays for furin (FIG. 5D) were performed in 100 mM Hepes pH 7.5, 1 mM CaCl2, 1 mM β-mercaptoethanol, 0.5 μg/μL BSA. Assays for PC2 (FIG. 5E) were performed in 20 mM Bis-Tris pH 5,7, 1 mM CaCl2, 0.1% Brij-30. Assays for PC1/3, PC4, PACE4, PC5/6 and PC7 (FIGS. 5F, G, A, B and C respectively) were performed in 20 mM Bis-Tis pH 6.5, 1 mM CaCl2. All assays were performed with the substrate pyroGlu-Arg-[…]-Lys-Arg-methyl-coumaryl-7-amide (SEQ ID NO: 33) (PyrRTKR-MCA (SEQ ID NO: 34)) (Bachem, CA) at 100 μM for furin, PC1/3, PC4, PACE4 and PC5/6, 200 μM for PC2 and 250 μM for PC7. Assays were carried out at 37° C. for 30-60 min and real-time fluorescence was measured with an excitation wavelength of 370 nm and an emission wavelength of 460 nm using a Gemini XS™ 96-well spectrofluorometer and SoftMaxPro4™ software (Molecular Devices, CA). Inhibitory peptides were added to the enzymes at decreasing concentrations from 100 μM to 50 nM and incubated 5 minutes prior to the addition of substrate.

furin = furin (Homo sapiens, UniProt P09958); experiment: Enzyme inhibition assay, fluorogenic substrate, furin; assay type: biochemical
Sequence of furin (P09958 108-794, species assumed): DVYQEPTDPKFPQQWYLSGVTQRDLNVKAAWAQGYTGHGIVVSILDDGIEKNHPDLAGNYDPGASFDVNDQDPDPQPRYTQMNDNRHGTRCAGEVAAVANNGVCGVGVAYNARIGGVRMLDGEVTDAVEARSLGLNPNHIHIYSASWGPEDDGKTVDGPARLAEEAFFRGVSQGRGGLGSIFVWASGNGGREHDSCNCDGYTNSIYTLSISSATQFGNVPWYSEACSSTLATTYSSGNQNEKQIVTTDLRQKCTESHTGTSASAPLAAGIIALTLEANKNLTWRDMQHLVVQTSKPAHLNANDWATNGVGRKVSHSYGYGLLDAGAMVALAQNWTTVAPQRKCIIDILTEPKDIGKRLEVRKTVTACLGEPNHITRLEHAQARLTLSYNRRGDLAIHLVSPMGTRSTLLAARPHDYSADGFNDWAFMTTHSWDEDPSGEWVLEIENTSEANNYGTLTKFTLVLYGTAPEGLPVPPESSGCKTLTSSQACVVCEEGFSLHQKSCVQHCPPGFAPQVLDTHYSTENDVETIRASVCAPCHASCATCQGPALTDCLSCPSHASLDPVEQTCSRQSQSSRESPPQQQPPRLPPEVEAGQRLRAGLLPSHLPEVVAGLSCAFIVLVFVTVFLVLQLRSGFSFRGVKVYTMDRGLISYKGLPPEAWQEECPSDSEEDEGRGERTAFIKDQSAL
Experimental: as §4

PC1/3 = target: T1, PC1/3 (Homo sapiens, UniProt P29120); experiment: Enzyme inhibition assay, fluorogenic substrate, PC1/3; assay type: biochemical
T1 sequence (P29120 111-753): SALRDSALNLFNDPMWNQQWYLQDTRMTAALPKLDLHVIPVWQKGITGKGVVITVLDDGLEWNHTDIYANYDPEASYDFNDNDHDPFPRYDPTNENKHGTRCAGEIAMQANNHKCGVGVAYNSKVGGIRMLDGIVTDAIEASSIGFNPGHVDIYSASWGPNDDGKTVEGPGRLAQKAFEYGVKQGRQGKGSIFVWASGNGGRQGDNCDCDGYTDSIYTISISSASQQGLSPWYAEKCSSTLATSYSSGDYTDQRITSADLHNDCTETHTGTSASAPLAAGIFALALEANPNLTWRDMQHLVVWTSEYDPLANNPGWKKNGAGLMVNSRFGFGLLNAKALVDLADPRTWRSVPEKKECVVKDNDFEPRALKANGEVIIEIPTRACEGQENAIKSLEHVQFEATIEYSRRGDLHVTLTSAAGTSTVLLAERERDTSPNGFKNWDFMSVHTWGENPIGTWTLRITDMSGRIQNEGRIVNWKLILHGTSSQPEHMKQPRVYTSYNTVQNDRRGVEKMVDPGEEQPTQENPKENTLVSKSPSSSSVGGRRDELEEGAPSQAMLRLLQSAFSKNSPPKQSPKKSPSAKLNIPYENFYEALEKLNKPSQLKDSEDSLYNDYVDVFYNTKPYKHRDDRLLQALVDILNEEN
Experimental: as §4

PC7 = target: T2, PC7 (Homo sapiens, UniProt Q16549); experiment: Enzyme inhibition assay, fluorogenic substrate, PC7; assay type: biochemical; details: 20 mM Bis-Tis pH 6.5, 1 mM CaCl2, substrate 250 μM, 37° C.
T2 sequence (Q16549 142-785): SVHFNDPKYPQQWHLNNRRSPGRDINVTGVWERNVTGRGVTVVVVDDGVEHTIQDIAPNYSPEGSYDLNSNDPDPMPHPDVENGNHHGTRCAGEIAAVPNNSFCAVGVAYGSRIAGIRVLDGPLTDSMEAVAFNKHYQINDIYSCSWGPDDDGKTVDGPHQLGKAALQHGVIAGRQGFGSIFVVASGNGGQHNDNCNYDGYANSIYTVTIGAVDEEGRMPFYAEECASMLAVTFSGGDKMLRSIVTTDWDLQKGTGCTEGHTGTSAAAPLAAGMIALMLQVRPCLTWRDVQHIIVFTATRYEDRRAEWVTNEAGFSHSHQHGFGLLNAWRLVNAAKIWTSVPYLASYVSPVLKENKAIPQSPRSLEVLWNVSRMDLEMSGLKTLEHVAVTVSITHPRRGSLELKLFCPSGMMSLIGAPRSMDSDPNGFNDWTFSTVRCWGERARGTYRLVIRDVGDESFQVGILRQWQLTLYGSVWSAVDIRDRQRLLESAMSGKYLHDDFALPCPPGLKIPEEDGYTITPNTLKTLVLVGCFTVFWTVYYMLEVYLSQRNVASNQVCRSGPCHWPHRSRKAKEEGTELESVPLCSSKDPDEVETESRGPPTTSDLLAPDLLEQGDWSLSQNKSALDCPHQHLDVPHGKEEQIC
Experimental: as §4

PACE4 = target: T3, PACE4 (Homo sapiens, UniProt P29122); experiment: Enzyme inhibition assay, fluorogenic substrate, PACE4; assay type: biochemical
T3 sequence (P29122 150-969): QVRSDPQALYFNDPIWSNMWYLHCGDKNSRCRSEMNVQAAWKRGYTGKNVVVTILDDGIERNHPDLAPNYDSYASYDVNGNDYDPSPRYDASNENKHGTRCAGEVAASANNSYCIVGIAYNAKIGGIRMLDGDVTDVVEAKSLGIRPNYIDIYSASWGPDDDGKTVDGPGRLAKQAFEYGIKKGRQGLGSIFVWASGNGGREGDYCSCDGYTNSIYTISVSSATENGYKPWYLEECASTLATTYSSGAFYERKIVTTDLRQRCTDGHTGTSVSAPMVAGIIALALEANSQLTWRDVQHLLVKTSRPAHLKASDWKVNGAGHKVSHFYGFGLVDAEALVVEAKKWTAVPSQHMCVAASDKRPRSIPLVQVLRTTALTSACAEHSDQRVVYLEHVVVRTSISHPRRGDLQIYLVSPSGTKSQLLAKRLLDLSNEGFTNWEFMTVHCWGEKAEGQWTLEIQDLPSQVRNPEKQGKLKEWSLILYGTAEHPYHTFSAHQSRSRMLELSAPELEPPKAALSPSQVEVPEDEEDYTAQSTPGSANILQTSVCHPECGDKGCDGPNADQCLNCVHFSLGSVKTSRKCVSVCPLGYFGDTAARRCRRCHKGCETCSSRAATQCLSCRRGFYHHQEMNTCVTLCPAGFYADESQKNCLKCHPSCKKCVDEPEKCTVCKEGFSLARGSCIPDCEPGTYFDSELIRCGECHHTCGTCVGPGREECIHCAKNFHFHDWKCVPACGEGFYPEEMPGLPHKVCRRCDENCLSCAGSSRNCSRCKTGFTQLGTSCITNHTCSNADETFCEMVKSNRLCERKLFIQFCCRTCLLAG
Text: Those skilled in the art can easily determine PACE4 activity using routine experimentation. For example, the activity assay of PACE4 can be carried out in 96 well plates, and includes the use of a fluorogenic substrate, namely PyrRTKR-AMC (SEQ ID NO: 30) (AMC is amino-methyl-coumarin). The substrate and the purified enzyme are placed in the wells, and depending on the units of enzyme present, the AMC moiety will be cleaved at a certain rate, such a pmoles/sec. The resultant free AMC is now fluorescent and can be detected with a spectrofluorometer. The addition of inhibitors to the assay will yield progress curves that have lesser slopes. Based on these changes the inhibitory constants (Ki) is calculated (Fugere et al., 2002, J. Biol. Chem., 277:7648-56).
as §4

[4] = test system: 4-2 cells (DU145 transfected with PACE4-SOFA-δRz); experiment: Annexin-V-FITC/propidium iodide apoptosis assay, 4-2 cells; assay type: cell-based, human; details: 66 μM, 48 h
Experimental: To determine if the reduced cell number observed in the 4-2 cell line, described previously in Example 3, was a consequence of the induction of the apoptosis, the translocation of phosphatidylserine from the inner to the outer leaflet of the plasma membrane was analyzed. This analysis was performed with a FITC-conjugated annexin-V, which has a strong affinity for these extracellular phosphatidylserines, and the fluorescent intercalating agent propidium iodide (PI). Cell lines were seeded in a 6-well plate at a density of 8×10^4 cells/well in complete growth medium. The next day, cells were washed twice with PBS and complete growth media with or without cisplatin (Sigma) at final concentration of 66 μM were added. After a 48 hours incubation period, growth media were collected and combined to the harvested cells obtained after trypsin treatment. The collected pellets were washed with PBS before staining. Then, cells were stained with the Annexin-V-FLUOS™ Staining Kit (Roche Applied science), which double labeled cells with annexin-V-fluorescein isothiocyanate (FITC) and propidium iodide (PI). Stained cells were then analyzed with FACScan flow cytometer (BD Biosciences).

DU145 cells = experiment: Annexin-V-FITC/propidium iodide apoptosis assay, DU145; assay type: cell-based, human; details: DU145, 66 μM, 48 h
Experimental: The annexin V assay is based on the observation that soon after initiating apoptosis, cells translocate the membrane phosphatidylserine from the inner face of the plasma membrane to the cell surface. Once on the cell surface, phosphatidylserine can be easily detected by staining with a fluorescent conjugate of Annexin V, a protein that has a high affinity for phosphatidylserine. Detection is analyzed by flow cytometry. […] This analysis was performed with a FITC-conjugated annexin-V, which has a strong affinity for these extracellular phosphatidylserines, and the fluorescent intercalating agent propidium iodide (PI). Cell lines were seeded in a 6-well plate at a density of 8×10^4 cells/well in complete growth medium. The next day, cells were washed twice with PBS and complete growth media with or without cisplatin (Sigma) at final concentration of 66 μM were added. After a 48 hours incubation period, growth media were collected and combined to the harvested cells obtained after trypsin treatment. The collected pellets were washed with PBS before staining. Then, cells were stained with the Annexin-V-FLUOS™ Staining Kit (Roche Applied science), which double labeled cells with annexin-V-fluorescein isothiocyanate (FITC) and propidium iodide (PI). Stained cells were then analyzed with FACScan flow cytometer (BD Biosciences).

Row | Molecule | Cell proliferation index ([1]; DU145, 1 μM peptide) [%] | Cell proliferation index ([1]; DU145, 10 μM peptide) [%] | Cell proliferation index ([1]; DU145, 50 μM peptide) [%] | Cell proliferation index ([1]; DU145, 100 μM peptide) [%] | effect on cell proliferation index, in words [2] | effect on cell proliferation index, in words [3] | inhibition potency on furin, in words (furin) | Ki (PC7) | other results
1 | CH3CO—NH-LLLLRVKR-NH2 (Ac-LLLLRVKR-NH2) [acetyl ML] | 63.84 | 41.91 | 25.79 | 24.05 | significant effects | significant effects |  |  | 
2 | LLRVKR [LLRVKR—NH2, LLRVKR-NH2] |  |  |  |  |  |  | mid-nanomolar inhibitors |  | inhibition potency on PC5/6, in words (PC5/6): mid-low nanomolar range; inhibition potency on PC1/3, in words (PC1/3): best inhibited
3 | LRVKR [LRVKR—NH2, LRVKR-NH2] |  |  |  |  |  |  | mid-nanomolar inhibitors |  | 
4 | CC(C)C[C@H](NC(=O)[C@H](CC(C)C)NC(=O)[C@H](CC(C)C)NC(=O)[C@@H](N)CC(C)C)C(=O)N[C@@H](CC(C)C)C(=O)N[C@@H](CCCNC(=N)N)C(=O)N[C@H](C(=O)N[C@@H](CCCCN)C(=O)N[C@@H](CCCNC(=N)N)C(N)=O)C(C)C [5 Leu] |  |  |  |  |  |  |  | 35 to 50 nM | 
5 | H-LLLLRVKR-NH2 [ML] | 97.73 | 92.03 | 72.57 | 54.70 | significant effects | significant effects |  | 35 to 50 nM and 50 nM | inhibition potency on PACE4, in words (PACE4): nanomolar range; Ki (PACE4; 20 mM Bis-Tis pH 6.5, 1 mM CaCl2, substrate 100 μM, 37° C.): 6 nM; more effective on PACE4 than the other PCs (PACE4; ratio of Ki values, other PCs vs PACE4): ≥ 9 folds
6 | N.N.[Cl][Pt][Cl] [cisplatin] |  |  |  |  |  |  |  |  | annexin-V positivity ([4]; untreated 3%): 17%; PI staining (dead cells) ([4]; untreated 7%): 16%; annexin-V positivity (DU145 cells; untreated 2%): 30%; PI staining (dead cells) (DU145 cells; untreated 6%): 12%
